Measurements: publication PMC9084902, “Low-Molecular Weight Protamine Overcomes Chondroitin Sulfate Inhibition of Neural Regeneration” (Frontiers in Cell and Developmental Biology, 2022)
Entries after “also recorded” stand apart in the source; their conditions may differ.

Legend:
[1] = tested on: PTPσ ectodomain binding to aggrecan; assay: solid phase binding of wild-type PTPσ ectodomain to aggrecan, competition by LMWP
Source text: The N-terminal extracellular part of PTPσ (protein tyrosine phosphatase sigma; PTPRS) that contains the three Ig domains (amino acids 1-321) and mediates CSPG binding ([Shen et al., 2009]) was cloned using the PTPσ cDNA kindly provided by Dr. John Flanagan (Harvard University). The PTPσ mutant lacking the CS binding site in the Ig1 domain was produced as described ([Shen et al., 2009]). The recombinants were produced as Fc-tagged proteins in 293T HEK cells and purified on protein A Sepharose.
The competition assay for LMWP in binding of PTPσ to aggrecan was done in a similar way as earlier ([Paveliev et al., 2016]). Briefly, after overnight coating with 10 μg/ml aggrecan (150 ul/well) at 4°C 96-well tissue culture plates (Nunc) were washed two times with 0.05% Tween-20 in PBS and were blocked for 1 h at room temperature with 1%BSA and 0.05% Tween-20 in PBS. The recombinant wild type PTPσ ectodomain or the mutated ectodomain lacking CS binding (80 nM) were mixed with different concentrations of LMWP in 1% BSA and 0.05% Tween-20 in PBS, and were incubated in the plates overnight at 4°C. After washing with 0.05% Tween20 (3 times, room temperature), the wells were incubated for 1 h (room temperature) with HRP conjugated goat anti-human FC part of IgG (1:5000, in 1% BSA and 0.05% Tween20 PBS) to detect the bound PTPσ. […]

cortical neurons = assay: neurite outgrowth on aggrecan substrate, cortical neurons; assay type: cell-based, Wistar rat
Method: The cortex or hippocampus were obtained from 17 days-old Wistar rat embryos and transferred to ice-cold preparation solution. Neurons were further isolated exactly as described earlier in Sahu’s publication ([Sahu et al., 2019]). Primary rat cortical or hippocampal neurons (E17 Wistar rats) were cultured in 96-well plates at the density of 20000 cells/well in Neurobasal medium supplemented with B27 serum substitute, penicillin, streptomycin and L-glutamate for 2 days in vitro (DIV). The plates were precoated with aggrecan (5 ug/ml, 150 µl/well). Protamine or protamine peptides were added to the culture medium at different concentrations. To analyze the effect of protamine or its fragment on neurite outgrowth, the plates were coated with 10 μg/ml of protamine or LMWP. For the experiment with chondroitinase, the aggrecan-coated plates were treated with chondroitinase ABC (Amsbio AMS. E1028, lot CF0029) for 4 h followed by 2 times washing with PBS before cell plating, and the cell culture imaging was carried out after 3 DIV incubation with 4 uM LMWP added to the medium. Neurite outgrowth was imaged with phase contrast microscopy (Olympus IX70 microscope and Retiga 2000R digital camera) using both x10 and x20 objectives. […] Neurite length was measured with ImageJ software and averaged from 2 to 3 independent experiments with 1–2 technical replicas in each independent experiment.

hippocampal neurons = assay: neurite outgrowth on aggrecan substrate, hippocampal neurons; assay type: cell-based, Wistar rat; settings: 10 μg/ml, n = 3
Method: The cortex or hippocampus were obtained from 17 days-old Wistar rat embryos and transferred to ice-cold preparation solution. Neurons were further isolated exactly as described earlier in Sahu’s publication ([Sahu et al., 2019]). Primary rat cortical or hippocampal neurons (E17 Wistar rats) were cultured in 96-well plates at the density of 20000 cells/well in Neurobasal medium supplemented with B27 serum substitute, penicillin, streptomycin and L-glutamate for 2 days in vitro (DIV). The plates were precoated with aggrecan (5 ug/ml, 150 µl/well). Protamine or protamine peptides were added to the culture medium at different concentrations. To analyze the effect of protamine or its fragment on neurite outgrowth, the plates were coated with 10 μg/ml of protamine or LMWP. For the experiment with chondroitinase, the aggrecan-coated plates were treated with chondroitinase ABC (Amsbio AMS. E1028, lot CF0029) for 4 h followed by 2 times washing with PBS before cell plating, and the cell culture imaging was carried out after 3 DIV incubation with 4 uM LMWP added to the medium. Neurite outgrowth was imaged with phase contrast microscopy (Olympus IX70 microscope and Retiga 2000R digital camera) using both x10 and x20 objectives. Processes of neurons over the diameter of the neuronal soma were interpreted as neurites. Neurite length was measured with ImageJ software and averaged from 2 to 3 independent experiments with 1–2 technical replicas in each independent experiment.

[2] = tested on: NF200+ fibers in trauma hemisphere of spinal cord; assay: NF200 immunohistochemistry, C5 hemicontusion, subcutaneous delivery; assay type: in vivo, C57BL6/NHsd mouse; settings: 16 µg s.c. daily 49 days
Method: The effectiveness of systemically delivered LMWP in treatment of spinal cord trauma was tested in the cervical hemicontusion model (Figure 1B). Baseline behavior was assessed 1 week before the trauma surgery, and the results were used for balanced distribution of animals to the 3 experimental groups (“sham”, “trauma + PBS” and “trauma + LMWP”). Each housing cage contained animals from all three groups. Subcutaneous injections to the back area were started on the next day after the trauma and continued daily for 49 days. LMWP was injected subcutaneously at the 16 µg dose in 200 µl of sterile PBS. The groups “sham” and “trauma + PBS” got the same volume of PBS. Behavioral assessment was started 2 weeks after the trauma and finished at the week 12.
The samples for immunohistochemistry (IHC) were taken from all animals tested in the hemicontusion study with subcutaneous 7 weeks treatment (Figure 1B) at the end of the experiment at 12 weeks (Figure 1B). The cervical spinal cord segments were sectioned into 40 microns thick transverse sections from tissue blocks (samples embedded into solid OCT compound by freezing with dry ice) by using microtome (Leica CM3050 S). Few spinal cord samples were excluded from the study due to technical problems in spinal cord dissection or sectioning procedures, and the total amount of 11 spinal cords of the “trauma + PBS” and 7 spinal cords of the “trauma + LMWP” group were analyzed. Every fourth section per animal was chosen for IHC neurofilament staining making the section interval […]. The sections were stained with primary antibodies against NF200 (ab8135, Abcam, 1:500) in blocking buffer (1xTBS with 0.5% TX-100 and with 3%BSA) and AlexaFluor 594 (REF A11037, Invitrogen) secondary antibodies at the dilution 1:400 in TBS-T (1xTBS with 0.5% TX-100) on microscope slides. The washings prior to and between the stainings were done with TBS-T, whereas the final wash before mounting with Vectastain mounting medium with DAPI, was done by using reverse osmose water. […]

“VSRRRRRRGGRRRR [LMWP, low-molecular weight protamine]” was tested, and the “inhibition of PTPσ binding to aggrecan” value ([1]; 80 nM PTPσ-Fc, 10 μg/ml aggrecan coating, increasing LMWP, overnight 4°C, HRP anti-Fc/OPD 492 nm, n = 3, Figure 5C) was “progressively decreased by increasing LMWP concentrations; also recorded: clearly inhibited PTPσ binding to aggrecan in a similar manner as HB-GAM”, the “similarity of LMWP to mutated PTPσ in binding suppression” value ([1]; aggrecan substrate, increasing LMWP concentrations) was “mimicked the binding suppression effect seen with the mutated PTPσ” and the “stimulation of neurite outgrowth versus 0 μg/ml” value (cortical neurons; LMWP in medium at 1.75 µM (3.3 μg/ml), p = 0.0319, n = 6, Figure 5A) was roughly 6 times. The “stimulation of neurite outgrowth versus 0 μg/ml” value (cortical neurons; LMWP in medium at 3.5 µM (6.6 μg/ml), p < 0.0001, n = 6, Figure 5A) was “more than 20 times”, the “reversal of the inhibitory effect of aggrecan on neurite outgrowth (comparison among fragments)” value (hippocampal neurons; hippocampal neurons (E17 rat), 2 days on aggrecan, precoated with aggrecan or soluble in medium, about 70 neurons/replicate, normalized to control, Figure 2L) was “more effective in reversing the inhibitory effect of aggrecan than the 22 amino acid fragment or the full-length protamine” and the “length of the longest neurite, versus uncoated control” value (hippocampal neurons; precoated with aggrecan, 2 days, 10 neurons per condition per experiment, Supplementary Figure S1B,E) was “slightly reduces the length of the longest neurite”. For the same sequence, the “increase in number of branches” value (hippocampal neurons; precoated with aggrecan, 2 days, 10 neurons per condition per experiment, Supplementary Figure S1C,F) was 3 fold, the total neurite length (hippocampal neurons; precoated with aggrecan, 2 days, Figure 2 and Supplementary Figure S1A,D) was “increase in the total neurite length” and the “NF200+ signal area near trauma epicenter versus PBS” value ([2]; 60 µm rostral, p = 0.0064, no similar trend in the sections around) was “significant difference of the NF200+ signal area in one section level localized almost in the middle of the trauma epicenter”. For the same sequence, the “area of NF200+ signal on trauma periphery versus PBS” value ([2]; about ±400 µm from epicenter: 400 µm rostral p = 0.0021, −400 µm caudal p = 0.0346, Mann-Whitney, n = 7–11) was “increased the area of the NF200+ signal in the section levels located on the trauma periphery” and the “NF200+ fibers (%) in trauma hemisphere, LMWP versus control group” value ([2]; week 12, n = 7–11) was “statistically significant group difference between the LMWP-treated mice and the control mice in NF200+ fibers (%)”.
